Results taken from publication PMC5486949 (SLAS discovery, 2017).
Where a name gives a salt, the structure may show the parent alone. Read-outs that look alike come from different tables or passages of the source.

Legend:
[1] = tested on: aryl hydrocarbon receptor (AhR); conditions: cited from earlier work
ERRα [2] = assay: ERR luciferase reporter gene assay, agonist mode; assay type: cell-based, human; conditions: for AC50 ERR ↑: agonist mode, 0 = inactive or inconclusive; for AC50: read-out: AC50 ERR ↑
PGC-1α/ERRα [3] = assay: PGC/ERR luciferase reporter gene assay, agonist mode; assay type: cell-based, human; conditions: for AC50 PGC-ERR ↑: agonist mode, 0 = inactive or inconclusive; for EC50 / AC50: Homo sapiens; for EC50: read-out: PGC-1α/ERRα (Agonist) EC50; for AC50: read-out: AC50 PGC-ERR ↑
PGC-1α/ERRα [4] = assay: PGC/ERR luciferase reporter gene assay, antagonist mode; assay type: cell-based, human; conditions: for IC50: read-out: PGC-1α/ERRα (Antagonist) IC50; for AC50: read-out: AC50 PGC/ERR ↓
ERRα [5] = assay: ERR luciferase reporter gene assay, antagonist mode; assay type: cell-based, human; conditions: for IC50 / AC50: Homo sapiens; for IC50: read-out: ERRα (Antagonist) IC50; for AC50: read-out: AC50 ERR↓
[6] = tested on: PGC/ERR cell line (HEK293T); assay: Cell viability assay multiplexed with PGC/ERR antagonist mode assay; assay type: cell-based, human; conditions: read-out: PGC-1α/ERRα (Viability) IC50
ERR cell line (HEK293T) = assay: Cell viability assay multiplexed with ERR antagonist mode assay; assay type: cell-based, human; conditions: read-out: ERRα (Viability) IC50
[7] = tested on: ERR and PGC/ERR cell lines; assay: Cell viability; conditions: agonist mode, ERR and PGC/ERR lines (Fig. 3A,B)
[8] = read-out: ERRα (Agonist) EC50, LOPAC qHTS, dash = inconclusive or no activity
[9] = Homo sapiens, read-out: ERRα (Agonist) EC50
[10] = antagonist mode, 0 = inactive or inconclusive

## 6-Bromoindirubin-3-oxime
[1]
  AC50 AhR ↑: 5.48 log10(M)*–1
ERRα [2]
  AC50 ERR ↑: 5.78 log10(M)*–1
ERRα [2]; [8]
  EC50: 1.68 µM
PGC-1α/ERRα [3]
  AC50 PGC-ERR ↑: 5.93 log10(M)*–1

## Nc1nc(Nc2ccccc2)nc2c1ncn2[C@@H]1O[C@H](CO)[C@@H](O)[C@H]1O [2-Phenylaminoadenosine]
PGC-1α/ERRα [3]
  EC50: 1.68 µM

## Fc1cccc(C=NN=Cc2cccc(F)c2)c1 [3,3 ′-Difluorobenzaldazine]
ERRα [2]; [8]
  EC50: 13.3 µM

## Nc1nccc2c1ncn2[C@@H]1O[C@H](CO)[C@@H](O)[C@H]1O [3-Deazaadenosine]
PGC-1α/ERRα [4]; Homo sapiens
  IC50: 16.8 µM

## Brc1c(Br)c(Br)c2[nH]cnc2c1Br [4,5,6,7-Tetrabromobenz-imidazole]
ERRα [5]
  IC50: 16.8 µM

## Brc1c(Br)c(Br)c2[nH]nnc2c1Br [4,5,6,7-Tetrabromobenzo-triazole]
ERRα [5]
  AC50: 20.9 µM
  IC50: 18.8 µM
PGC-1α/ERRα [4]; Homo sapiens
  AC50: 20.9 µM
  IC50: 21.1 µM

## Nc1ccc(N=Nc2ccccc2)cc1 [4-Aminoazobenzene]
ERRα [2]; [9]
  EC50: 10.9 µM

## Cc1cccc(C#Cc2ccccc2)n1 [6-Methyl-2-(phenylethynyl)pyridine HCl]
ERRα [2]; [9]
  EC50: 13.3 µM

## CC1=C(C)C(=O)C(CCCCC#CCCCC#CCO)=C(C)C1=O [AA-861]
ERRα [5]
  IC50: 12.6 µM

## CC[n+]1c(/C=C/C=C2/N(C)c3ccccc3C2(C)C)sc2ccccc21 [AC-93253 iodide]
[6]
  IC50: 3.76 µM
ERR cell line (HEK293T)
  IC50: 8.41 µM
PGC-1α/ERRα [4]
  IC50: 0.42 µM

## O=C1NC(=O)/C(=C/c2ccc3c(c2)OC(F)(F)O3)S1 [AS 604850]
ERRα [2]; [8]
  EC50: 3.16 µM

## CCCCC[C@H](CC(=O)NO)C(=O)N[C@H](C(=O)N1CCC[C@H]1CO)C(C)C [Actinonin]
PGC-1α/ERRα [4]; Homo sapiens
  IC50: 8.91 µM

## Nc1nc(N)c2nc(CNc3ccc(C(=O)N[C@@H](CCC(=O)O)C(=O)O)cc3)cnc2n1 [Aminopterin]
ERRα [5]
  AC50: 0.0468 µM
  IC50: 0.05 µM
PGC-1α/ERRα [4]; Homo sapiens
  AC50: 0.0589 µM
  IC50: 0.06 µM

## COc1cc(NS(C)(=O)=O)ccc1Nc1c2ccccc2nc2ccccc12 [Amsacrine hydrochloride]
ERR cell line (HEK293T); Homo sapiens, HEK-293T
  IC50: 23.7 µM

## O=c1cc(-c2ccc(O)cc2)oc2cc(O)cc(O)c12 [Apigenin]
[1]
  AC50 AhR ↑: 5.28 log10(M)*–1
PGC-1α/ERRα [3]
  AC50: 2.34 µM

## CO[C@H]1O[C@@H]2O[C@@]3(C)CC[C@H]4[C@H](C)CC[C@@H]([C@H]1C)[C@@]24OO3 [Artemether]
ERRα [5]
  AC50: 0.525 µM
  IC50: 0.53 µM
PGC-1α/ERRα [4]; Homo sapiens
  AC50: 1.05 µM
  IC50: 0.75 µM

## COc1ccc(-c2cc3nccn3c(Nc3ncccc3C(N)=O)n2)cc1OC.Cl.O [BAY 61-3606 hydrochloride hydrate]
ERRα [5]; [10]
  AC50 ERR↓: 5.53 log10(M)*–1
PGC-1α/ERRα [4]; [10]
  AC50 PGC/ERR ↓: 5.63 log10(M)*–1

## Nc1ccc(-c2ccc3ccccc3n2)cc1 [BF-170 hydrochloride]
ERRα [2]
  AC50 ERR ↑: 5.58 log10(M)*–1
ERRα [2]; [8]
  EC50: 2.66 µM
PGC-1α/ERRα [3]
  AC50 PGC-ERR ↑: 5.78 log10(M)*–1

## Cc1ccc(S(=O)(=O)/C=C/C#N)cc1 [Bay 11-7082]
ERRα [2]; [8]
  EC50: 16.8 µM

## C[C@H]1CCC/C=C/[C@@H]2C[C@H](O)C[C@H]2[C@H](O)/C=C/C(=O)O1 [Brefeldin A]
ERRα [5]
  IC50: 1.5 µM

## O=C(/C=C/c1ccc(O)c(O)c1)OCCc1ccccc1 [Caffeic acid phenethyl ester]
PGC-1α/ERRα [3]
  EC50: 11.9 µM

## O=c1c(-c2ccc(O)cc2)coc2cc(O)ccc12 [Daidzein]
ERRα [2]; Homo sapiens
  AC50: 13.2 µM
ERRα [2]; [9]
  EC50: 13.3 µM
PGC-1α/ERRα [3]
  AC50: 20.9 µM

## C#C[C@]1(O)CC[C@H]2[C@@H]3CCC4=Cc5oncc5C[C@]4(C)[C@H]3CC[C@@]21C [Danazol]
ERRα [5]
  IC50: 15 µM

## OCCN(CCO)c1nc(N2CCCCC2)c2nc(N(CCO)CCO)nc(N3CCCCC3)c2n1 [Dipyridamole]
ERRα [5]
  IC50: 11.9 µM

## O=c1cc(-c2ccccc2)oc2ccccc12 [Flavone]
ERRα [2]; [9]
  EC50: 9.69 µM

## C=C[C@@]1(C)CC(=O)[C@]2(O)[C@@]3(C)[C@@H](O)CCC(C)(C)[C@@H]3[C@H](O)[C@H](OC(C)=O)[C@@]2(C)O1 [Forskolin]
PGC-1α/ERRα [3]
  EC50: 1.33 µM

## O=c1c(-c2ccc(O)cc2)coc2cc(O)cc(O)c12 [Genistein]
ERRα [2]; Homo sapiens, 18 h, read-out: EC50, ERRα induction, assay optimization, 2000 cells/well, 18 h
  EC50: 3.33 µM
ERRα [2]; Homo sapiens, 18 h, read-out: EC50, ERRα induction, assay optimization, 3000 cells/well, 18 h
  EC50: 3.23 µM
ERRα [2]; Homo sapiens
  AC50: 2.95 µM
PGC-1α/ERRα [3]
  AC50: 3.31 µM
[7]
  cytotoxicity at concentrations of outfitted points of agonist curves: cytotoxicity did not appear to be the direct cause for the outfitted points

## NNc1nncc2ccccc12 [Hydralazine hydrochloride]
ERRα [2]; [9]
  EC50: 0.75 µM

## COc1ccc(/C=C2\COc3ccc(C)cc3C2=O)cc1O [IMS2186]
ERRα [2]; [8]
  EC50: 1.06 µM
